# Source: patent US11447534B2, “Peptide complex with immunodulatory and anti-inflammatory function” (NATIONAL INSTITUTE OF IMMUNOLOGY, priority 2018, dated 2022)
# Test system: ConA activated macrophages
# Assay: qPCR in ConA activated macrophages
# Assay type: cell-based, murine
# Experimental: To determine the immunomodulatory effect of A-O complex, serum starved macrophages were exposed to the complex. Macrophages (1×10^6 cells) were serum starved for 30 min after which cells were exposed to A-O complex. After 1 hour, cells were washed with 1×PBS (pH 7.4) and harvested using cell dissociation solution. Then the cells were suspended in ice cold staining buffer (100 μl) and centrifuged at 1000 rpm for 5 min at 4° C. The cells were resuspended in 100 μl ice cold staining buffer for 10 min at 2-8° C. and pellet resuspended in 50 μl staining media. To this 2 μl of Fc block or anti-mouse CD16/CD32 was added for 10 mins and washed with staining buffer. The cells were resuspended in 50 μl of staining buffer and incubated with fluorescent-tagged CD36 antibody (e-biosciences) for 25-30 min on ice. The excess stain was removed by washing and pelleting down using staining buffer thrice by spinning and removal of staining buffer. The cell suspension was fixed 1:1 ratio (staining buffer:fixative) and analysed within 48 h in ARIA3 DIVA software version 6.1. Further, expression of MHC-II, and CD-36, was also determined in the microglial cells via qPCR. For this RNA extraction was performed using RNA extraction kit from Qiagen according to the manufacturer's instruction. cDNA synthesis was performed using cDNA synthesis kit from Qiagen. […] Following amplification, fold changes in gene expression versus β-actin (reference) analysis was determined using the 2^ΔΔCT(Livak) method. To determine the immunomodulatory effect of A-O complex on activated macrophages, macrophages were activated with Concanavalin-A (Con-A), for 30 minutes and the changes in mRNA levels of Cd36, Lrp1, Cd11b, Cd74 and Apoe were analyzed by qPCR.
substance,measurement,value
"A-O complex: peptide complex of 100 μM Abeta1-42 (SEQ ID NO: 1) and 3 ng Glu-OC (SEQ ID NO: 2), incubated at 37° C. for 4 hours",mRNA level of Cd11b,significantly reversed
same,mRNA level of Cd36,significantly induced
same,mRNA level of Cd74,significantly reversed
